Assay results from patent US4404230A, “4-Hydroxy-1,2-Benzisothiazol-3(2H)-one-1,1-dioxides and salts thereof” (priority 1980, dated 1983).

How the values were obtained:
[1] = test system: taste testers; assay: Determination of the relative sweetening power in comparison to saccharose; type: in vivo; details: compared with 3% aqueous solution of saccharose
Source text: The relative sweetening power (often also defined as degree of sweetness) of sweetening agents in comparison with saccharose (cane sugar) varies considerably with concentration. […] Therefore, for the determination of the relative sweetening power of the test compounds a 3% aqueous solution of saccharose was always used for comparison.

[2] = test system: taste testers; assay: Determination of the taste quality; type: in vivo
Protocol: The tests were performed in analogy to the method of DuBois, G. A. Crosby, R. A. Stephanson and R. E. Wingard Jr., J. Agric. […] The test compounds were used as aqueous solutions at a concentration which corresponds to an about 5% saccharose solution. As comparison compound saccharose was used. The tests were carried out under identical conditions. Only the characterization of the taste was evaluated, because the intensity was already determined in the preceding experiments. The following criteria were determined by each tester: Percentage sweet to percentage bitter to percentage another taste quality. Furthermore, the presence or absence of an after taste of the individual test compounds was determined. Each substance was tested twice with regard to five different determinations.

[3] = test system: taste testers; assay: Determination of the threshold concentration (sweet taste); type: in vivo
Protocol: Aqueous solutions having concentrations of 1:12,500, 1:25,000, 1:50,000, and 1:100,000 were prepared of test compounds A, B and C and of comparison compounds X, Y and Z, and each was evaluated at 5 taste testers according to the following scoring system: Very sweet (=3 points), medium sweet (=2 points), weakly sweet (=1 point), and not sweet (=0 point). The tests were carried out as described by H. G. Schutz and F. J. Pilgrim in Food Research 22, 206 (1957). The dilution perceptible as sweet was defined as having the concentration at which the average value of the evaluation points reached 1.0 or more.

[4] = test system: thrombocyte aggregation; assay: Effect on thrombocyte aggregation induced by collagen; type: cell-based; details: read-out: Change in % max. aggregation rate
Protocol: The thrombocyte aggregation was measured according to Born and Cross [J. Physiol. 170, 397 (1964)] in platelet-rich plasma obtained by centrifuging citrate blood. The change in the maximum aggregation rate in % compared with a control, and the percent change in the "optical density" were the measured parameters. The aggregation was induced by collagen.

[5] = test system: taste testers; details: prior knowledge; cited from earlier work
[6] = test system: taste testers; details: prior knowledge; cited from earlier work; remark: listed apart in the source
[7] = Batzinger et al., Science 198, 944 (1977); cited from earlier work
[8] = prior knowledge; cited from earlier work

Which results are given for `O=C1NS(=O)(=O)c2cccc(O)c21` [Substance A, 4-hydroxy-1,2-benzisothiazol-3(2H)-one-1,1-dioxide]?
Relative sweetening power (Saccharose = 1) [1]: 210; purity of the taste [2]: 94-96%; After taste ([2]; 1:10000, 10 determinations): 3; Percentage bitter ([2]; 1:10000, 10 determinations): 2%; Percentage other taste ([2]; 1:10000, 10 determinations): 4%; Percentage sweet ([2]; 1:10000, 10 determinations): 94%; Average value of evaluation points ([3]; concentration 1:25000): 2.4 points; Average value of evaluation points ([3]; concentration 1:50000): 1.0 points; Average value of evaluation points ([3]; concentration 1:100000): 0.2 points

What does the source list for `O=C1NS(=O)(=O)c2cc(O)cc(O)c21` [Substance C, 4,6-Dihydroxy-1,2-benzoisothiazol-3(2H)-one-1,1-dioxide]?
Relative sweetening power (Saccharose = 1) [1]: 180; purity of the taste [2]: 86%; After taste ([2]; 1:10000, 10 determinations): 8; Percentage bitter ([2]; 1:10000, 10 determinations): 3%; Percentage other taste ([2]; 1:10000, 10 determinations): 11%; Percentage sweet ([2]; 1:10000, 10 determinations): 86%; Average value of evaluation points ([3]; concentration 1:25000): 1.8 points; Average value of evaluation points ([3]; concentration 1:50000): 1.0 points; Average value of evaluation points ([3]; concentration 1:100000): 0.0 points

Which After taste ([2]; 1:20, 10 determinations) does the source give for `OC[C@H]1O[C@@](CO)(O[C@H]2O[C@H](CO)[C@@H](O)[C@H](O)[C@H]2O)[C@@H](O)[C@@H]1O` [Saccharose, saccharose, reference compound] here?
Its After taste is 4.

What about the Percentage bitter ([2]; 1:20, 10 determinations) of the same compound?
The Percentage bitter was 0%.

What about the Percentage other taste ([2]; 1:20, 10 determinations) of the same compound?
Its Percentage other taste is 2%.

And the Percentage sweet ([2]; 1:20, 10 determinations)?
Its Percentage sweet is 98%.

With `O=C1NS(=O)(=O)c2cccc(O)c21.[Na]` [sodium salt] as the compound, how does the change in maximum aggregation rate vs control at 100 µM [4] read?
Its change in maximum aggregation rate vs control at 100 µM is 0%.

What does the source list for `O=C1NS(=O)(=O)c2ccccc21` [Y, saccharine, reference compound]?
sweetening power compared with saccharose (in words) [5]: much better than that of the saccharose; after taste and concurrent taste [6]: metallic, bitter after taste and the bitter concurrent taste; taste profile compared with saccharose [2]: not even approached; After taste ([2]; 1:10000, 10 determinations): 80; Percentage bitter ([2]; 1:10000, 10 determinations): 21%; Percentage other taste ([2]; 1:10000, 10 determinations): 7%; Percentage sweet ([2]; 1:10000, 10 determinations): 72%; mutagenic effect [7]: shows a mutagenic effect; Average value of evaluation points ([3]; concentration 1:25000): 2.4 points; Average value of evaluation points ([3]; concentration 1:50000): 1.2 points; Average value of evaluation points ([3]; concentration 1:100000): 0.4 points

With `O=C1NS(=O)(=O)c2cc(O)ccc21` [Z, 6-hydroxy-1,2-benzisothiazol-3(2H)-one-1,1-dioxide, reference compound] as the compound, how does the “Relative sweetening power (Saccharose = 1)” value [1] read?
Its value is 140.

And the “taste profile compared with saccharose” value [2]?
Its value is “not even approached”.

What about the After taste ([2]; 1:10000, 10 determinations) of the same compound?
The After taste was 29.

What about the Percentage bitter ([2]; 1:10000, 10 determinations) of the same compound?
The Percentage bitter was 7%.

What about the Percentage other taste ([2]; 1:10000, 10 determinations) of the same compound?
Its Percentage other taste is 12%.

What about the Percentage sweet ([2]; 1:10000, 10 determinations) of the same compound?
The Percentage sweet was 81%.

And the “Average value of evaluation points” value ([3]; concentration 1:25000)?
The value was 1.4 points.

And the “Average value of evaluation points” value ([3]; concentration 1:50000)?
Its value is 0.6 points.

And the “Average value of evaluation points” value ([3]; concentration 1:100000)?
The value was 0.0 points.

Which results are given for `O=S(=O)(O)NC1CCCCC1` [X, cyclamate, reference compound]?
sweetening power compared with saccharose (in words) [5]: much better than that of the saccharose; Relative sweetening power (Saccharose = 1) [1]: 45; Average value of evaluation points ([3]; concentration 1:12500): 0.6 points; Average value of evaluation points ([3]; concentration 1:25000): 0.2 points; Average value of evaluation points ([3]; concentration 1:50000): 0.0 points; toxicological tests at higher dosages [8]: not without objection
